Converted amounts (≈) assume the structure as drawn. One block for each molecule: values may come before it.
Assays:
CD11b/CD18 = target: T1, CD11b/CD18 (Homo sapiens, UniProt P11215); test: Adhesion of JY/CD11b cells to immobilized iC3b; format: cell-based; details: dose-dependent; relative to control DMSO treatment
T1 construct: expressed in transfected cells; host or cells: JY (human B lymphoblastoid) cells
Method: B. Adhesion Assay of JY/CD11b Cells to Immobilized iC3b
Briefly, each well of a 96-well plate was coated overnight at 4° C. with 50 μl glycophorin (10 μg/ml), iC3b (5 μg/ml) or with anti-CD18 monoclonal antibody (22F12C, 5 μg/ml) and anti-CD11b monoclonal antibody (44AACB, 5 µg/ml) in bicarbonate buffer (pH 9.6). Plates were blocked with human serum albumin in D-PBS for one hr at room temperature. JY cells transfected with CD11b (JY/CD11b cells) (100 μl at 1×10^6 cells/ml) in adhesion buffer were added to each well and incubation was carried out at 37° C. for 30 min. Plates were fixed and analyzed as described above in Example 1. Percentage of cells binding was determined using the equation below. [formula]
Data was normalized using the formula: [formula]

ftsZ [1] = target: T2, ftsZ (Escherichia coli, UniProt P0A9A6); test: ftsZ GTPase assay; format: biochemical
T2 sequence (P0A9A6 whole entry): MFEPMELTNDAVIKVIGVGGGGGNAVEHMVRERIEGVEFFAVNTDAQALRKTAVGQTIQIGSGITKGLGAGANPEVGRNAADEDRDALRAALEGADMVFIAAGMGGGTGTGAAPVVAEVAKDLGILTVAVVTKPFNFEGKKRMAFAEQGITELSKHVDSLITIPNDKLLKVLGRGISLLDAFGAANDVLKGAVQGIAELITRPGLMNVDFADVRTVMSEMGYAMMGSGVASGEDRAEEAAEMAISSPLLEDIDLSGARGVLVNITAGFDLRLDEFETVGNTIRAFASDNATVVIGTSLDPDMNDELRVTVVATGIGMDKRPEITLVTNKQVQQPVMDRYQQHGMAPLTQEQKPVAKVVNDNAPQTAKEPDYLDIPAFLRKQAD
Method: An alternative assay that may be more sensitive was also devised. In this assay, 100 μg/ml ftsZ was incubated with 0.5 μM ^32P-γ-GTP. The GTPase activity of ftsZ liberates ^32PO4. By terminating the reaction with 25 mg/ml activated charcoal in 100 mM NaH2PO4 and centrifuging the product, the remaining ^32P-γ-GTP is trapped by the charcoal. Accordingly, the ^32PO4 that remains in the supernatant can be measured, providing a measurement of GTPase inhibition.

ftsZ [2] = target: T2, ftsZ; test: ftsZ polymerization assay; format: biochemical; details: read-out: IC50, ftsZ polymerization screen
Method: A polymerization assay for the identification of ftsZ inhibitors that can be performed in microtiter wells has been devised. The polymerization assay is an adaptation of a tubulin polymerization assay [Bollag et al., Cancer Research 55:2325-2333 (1995)], and involves the reversible polymerization of ftsz in a GTP-dependent fashion.
In the presence of GTP and 10 mM CaCl2, 5 nm ftsZ linear polymers assemble into higher order polymers [Yu et al., EMBO 16:5455-5463 (1997)] that are large enough to be trapped by a 0.2 μm filter. The protein that is retained on the filter can be stained and detected in a colorimetric assay. A reaction consisting of 300 μg/ml of ftsZ polymerized by 100 μM GTP was screened against candidate ftsZ inhibitors at 10 μM.

[3] = system: permeable tolC strain (plasmid only); test: microbe, parasite or virus in culture; format: cell-based, E. coli; details: Escherichia coli, read-out: MIC, control strain
Method: (§1) A permeable bacteria] strain (AB734 TN10::tolC) was used in the screening method to maximize the ability of the compounds to cross the gram negative cell wall. Assays were conducted in accordance with the NCCLS protocols referenced herein.
(§2) It was of further interest to determine whether those compounds with antimicrobial activity worked in a ENR-dependent fashion. Two strains of the permeable tolC strain were constructed. In the first strain, the ENR protein was overexpressed by placing it under control of its own promoter on a moderate copy number plasmid, and the second strain served as a control including only the plasmid.

[4] = system: permeable tolC strain overexpressing ENR; test: microbe, parasite or virus in culture; format: cell-based, E. coli; details: Escherichia coli, read-out: MIC, ENR-overexpressing strain
Method: as §1, §2

Compound: O=[N+]([O-])c1cc(Cl)c(Sc2ccc(Cl)cc2Cl)cc1F [Cmpd C]
- stimulation of CD11b/CD18 binding to iC3b (CD11b/CD18): two times

Compound: Nc1nc2c(ncn2[C@@H]2O[C@H](COP(=O)(O)OP(=O)(O)O)[C@@H](O)[C@H]2O)c(=O)[nH]1 [GDP]
- IC50 (ftsZ [1]): 8 µM
- IC50 (ftsZ [2]): 250 µM

Compound: Oc1cc(Cl)ccc1Oc1ccc(Cl)cc1Cl [triclosan]
- MIC [3]: 0.031 µg/mL (≈ 0.107 µM)
- MIC [4]: 1 µg/mL (≈ 3.45 µM)

Further lines, results first:

- stimulation of CD11b/CD18 binding to iC3b (CD11b/CD18): two times
Compound: CCCCC(CCCC)N(C(=O)CN1CC(c2ccc3c(c2)OCO3)C(C)C1C(C)(C)CCCC)c1ccc(F)c(C)c1 (stereo not shown) [Cmpd H]

- stimulation of CD11b/CD18 binding to iC3b (CD11b/CD18): two times
Compound: CCCCC(CCCC)N(C(=O)CN1CC(c2ccc3ccccc3c2)C(C(=O)O)C1c1ccc(OC)cc1)c1ccc(F)c(C)c1 (stereo not shown) [Cmpd I]

— patent US20030088061A1, “Materials and methods to modulate ligand binding/enzymatic activity of alpha/beta proteins containing an allosteric regulatory site” (priority 2000, published 2003)
